Series [1] is described as follows: Terg-O-Tometer stain removal test of detergent product containing the detergent solvent, rated visually. On the set-up: key: 0: complete removal; 1: Very slight remaining stain; 2: Slight remaining stain; 3: Moderate stain removal; 4: Poor stain removal; 5: Very poor stain removal; 6: Equal to original stain. Particulars: 4.0% detergent solvent in detergent product; 5% solution 15 min, then 20 min wash at 0.144%; 120° F, 180 ppm hardness. Here is the method: Four Dacron/cotton (65-35%) Khaki permanent press (Pants weight) test pieces (41/2 inches×6 inches) are first soiled by adding 3 drops of dirty crankcase motor oil on the center of the cloth and the stain allowed to set for one hour. The test cloths are then washed in the Terg-O-Tometerat 120° F, 180 ppm (2:1 Ca^+^+/Mg^+^+) hardness, 90 cycles per minute agitation, with a 5% solution of the detergent product described below (i.e., 50 g/liter) for 15 minutes and then hand squeezed to remove excess water. Finally the cloths are given a 20 minute wash at the standard use level (e.g. 0.144%) under the same conditions followed by a 1 minute rinse. After drying the washed cloths, the degree of stain removal is rated visually according to the scale below:
1 = Very slight remaining stain
2 = Slight remaining stain
3 = Moderate stain removal
5 = Very poor stain removal
6 = Equal to original stain
Ten such formulations utilizing the following "Detergent Solvents" were prepared and evaluated as described above: […]

Series [2] in a line: Cold resistance of plasticized polyvinyl chloride film. It is filed as physicochemical. The following applies: PVC film 1.3 mm, 65 parts plasticizer per 100 parts S-PVC resin. Here is the method:
Tri(2-ethylhexyl) carboxymethyloxysuccinate was incorporated as a plasticizer in the preparation of polyvinyl chloride film as follows
Using a mixing roller at 170° (7 min.) followed by post-pressing the film at 170° C under contact pressure for 2 minutes, a good plasticized film (1.3 mm) of polyvinyl chloride was obtained. Cold resistance was -39° C compared to -36° C for a control PVC film made using di-2-ethylhexyl phthalate (DOP) as the plasticizer.

The conditions of series [3]: parent compound from which the esters are derived; cited from earlier work.
For series [4] the following is noted: parent compound from which the esters are derived; cited from earlier work. This is another data set of the same source.
For series [5] the following is noted: under both aerobic and anaerobic conditions; cited from earlier work.

As to `CCCCOC(=O)c1ccccc1C(=O)OCCCC` [A, dibutyl phthalate, reference compound], in series [1], the “Visual Grading Code (degree of stain removal)” value (“Visual Grading Code” for short) is 2. For `COC(=O)COC(CC(=O)OC)C(=O)OC` (centres unmarked) [B, trimethyl carboxymethyloxysuccinate], the “Visual Grading Code” value in series [1] was found to be 2. Same read-out and setting: the value for `CCOC(=O)COC(CC(=O)OCC)C(=O)OCC` (centres unmarked) [C, triethyl carboxymethyloxysuccinate] was 1. Same read-out and setting: under `CCCOC(=O)COC(CC(=O)OCCC)C(=O)OCCC` (centres unmarked) [D, tripropyl carboxymethyloxysuccinate] stands 1; under `CCCCOC(=O)COC(CC(=O)OCCCC)C(=O)OCCCC` (centres unmarked) [E, tributyl carboxymethyloxysuccinate], 2; under `CCCCCCOC(=O)COC(CC(=O)OCCCCCC)C(=O)OCCCCCC` (centres unmarked) [F, trihexyl carboxymethyloxysuccinate], 1. `CCCCC(CC)COC(=O)COC(CC(=O)OCC(CC)CCCC)C(=O)OCC(CC)CCCC` (centres unmarked) [G, tri(2-ethylhexyl) carboxymethyloxysuccinate]: the “Visual Grading Code” value in series [1] is recorded as 2. For the same compound, the Cold resistance in series [2] is -39 °C. Turning to `CCCCCCCCOC(=O)COC(CC(=O)OCCCCCCCC)C(=O)OCCCCCCCC` (centres unmarked) [H, trioctyl carboxymethyloxysuccinate], the “Visual Grading Code” value in series [1] was found to be 2. Consider `CCCCCCCCCCCCOC(=O)COC(CC(=O)OCCCCCCCCCCCC)C(=O)OCCCCCCCCCCCC` (centres unmarked) [J, tridodecyl carboxymethyloxysuccinate], for which the “Visual Grading Code” value in series [1] is given as 2. With `O=C(O)COC(CC(=O)O)C(=O)O` (centres unmarked) [carboxymethyloxysuccinic acid], the toxicity result in series [3] is listed as “non-toxic”. Moreover, the teratogenicity result in series [4] is “non-teratogenic”. Besides, the biodegradability result in series [5] is “completely biodegradable”. For `CCCCC(CC)COC(=O)c1ccccc1C(=O)OCC(CC)CCCC` (centres unmarked) [di-2-ethylhexyl phthalate, reference compound], the Cold resistance in series [2] was -36 °C.

These data come from patent US3996150A, “Ester compounds” (Lever Brothers Company, priority 1975, dated 1976).
